“Also recorded” adds a separate entry of the source.
How the values were obtained:
[1] = test system: rat middle cerebral arteries; experiment: Contraction of middle cerebral arteries 48 h after tMCAO, wire myograph; details: for agonist-mediated contraction (% of maximum potassium-mediated contraction): occluded MCAs, 48 h after tMCAO, mean±SD
Description: Mean arterial blood pressure, pCO2, pO2, pH and plasma glucose were measured prior to the occlusion through an arterial tail catheter (Radiometer; LabChart). A rectal thermometer connected to a homoeothermic blanket was used to maintain body temperature at +37° C. during the surgical procedure. An incision was made in the midline of the neck exposing the right common, internal and external carotid arteries. The common and external carotid arteries were permanently ligated by sutures and an incision was made in the common carotid artery. A laser Doppler probe (Perimed, Järfälla, Sweden) was fixed to the thinned skull in the area corresponding to the area supplied by the middle cerebral artery (1 mm posterior to bregma and 6 mm to the right from the midline). A silicone, rubber-coated monofilament (Doccol Corporation, Redlands, Calif., USA) was inserted through the incision until the tip reached the entrance of the right middle cerebral artery (MCA). The occlusion was confirmed by an abrupt reduction of cortical blood flow that was observed using laser Doppler monitoring. After securing the filament, the skin was sutured and anesthesia was discontinued. After two hours of occlusion, the rats were briefly re-anesthetized to remove the filament and allow reperfusion. […] The animals were allowed to recover 48 hours after surgery with free access to food and water before they were anesthetized with CO2 and decapitated. The brains were removed and immediately chilled in ice-cold bicarbonate buffer solution (for composition, see Drugs, Chemicals and Solutions). Right (occluded) and left (non-occluded) middle cerebral arteries were dissected free from adhering tissue and used for myograph studies.
Contractile properties of middle cerebral arteries were examined using a wire Mulvany-Halpern myograph that records isometric tension (Danish Myo Technology A/S, Aarhus, Denmark). Arteries were cut into cylindrical segments (2 mm), and mounted in the myographs by two parallel 40 μm wires inserted through the lumen. The myograph baths contained 5 ml +37° C. bicarbonate buffer solution (for composition, see Drugs, Chemicals and Solutions) continuously aerated with 5% carbon dioxide in oxygen resulting in pH 7.4. […] The other wire was connected to a force displacement transducer attached to an analogue-digital converter (AD Instruments, Chalgrove, UK). The results were recorded on a computer using a Power Lab unit (AD instruments) and the software LabChart (ADInstruments). After the normalization procedure, the arteries were allowed to equilibrate at this tension for 20 min.
The maximum potassium-mediated contraction was used as a reference value (=100%) for contractile capacity. To eliminate endothelial influence, the production of nitric oxide and prostaglandins was blocked with 100 μM L-NG-nitroarginine methyl ester (L-NAME) and 10 μM indomethacin, respectively, which were present in the tissue baths throughout the experiments on the arteries from the in vivo stroke model.
Receptors for 5-hydroxytryptamine receptors (5-HT) were evaluated by adding 5-carboxamidotryptamine (5-CT, a non-selective 5-HT1 agonist) in concentrations ranging from 10^−11 to 10^−5M (Hansen-Schwartz). The angiotensin type 1 (AT1) receptor was evaluated by cumulative applications of Angiotensin II in concentrations ranging from 10^−12 to 10^−6 M. 30 minutes prior to the experiment, the AT2 receptor antagonist PD123319 was added to eliminate any AT2 receptor-mediated effects. […]

[2] = test system: rat basilar arteries (contractile ETB receptors); experiment: 48 h organ culture of basilar artery, S6c (ETB agonist)-induced contraction in wire myograph; format: cell-based; details: for inhibition of S6c-induced contraction (initial screening groups): 1 μM inhibitor, S6c contraction relative to 60 mM K+; for inhibition of S6c-induced contraction (initial screening groups) / IC50: 48 h organ culture; for IC50: Rattus norvegicus, inhibition of S6c-induced contraction, read-out: pIC50 (based on the Emax for S6c) (converted)
Description: Rats were sedated with O2/CO2 (30/70%) and sacrificed by decapitation. Brains were gently removed and chilled in a cold oxygenated buffer solution of the following composition: 119 mM NaCl, 4.6 mM KCl, 1.5 mM CaCl2, 1.2 mM MgCl2, 1.2 mM NaH2PO4, 15 mM NaHCO3 and 5.5 mM Glucose; pH 7.4. The basilar artery (BA) was carefully dissected from the brain in a physiological buffer solution followed by either OC (naïve animals) or directly mounted in a wire myograph (arteries from rats which has undergone surgical procedures). Segments were incubated for 48 hours at 37° C. in humidified 5% CO2/O2 in DMEM supplemented with streptomycin and penicillin with inhibitors or vehicle (DMSO). Culture media was changed after 24 hours.
(§1) For contractility measurements, both incubated BAs (ex vivo) and BAs after surgical procedure (in vivo) were cut into segments and mounted on a pair of metal wires (40 μm) in a myograph bath. The arteries from OC were mounted the same way after 48 hours in media. One wire was attached to a micro-meter screw which allows for fine adjustments of the distance between the wires, controlling the vascular tone.
(§2) The segments were equilibrated in physiological buffer aerated with 95% O2/5% CO2, pH of 7.4, temperature set at 37° C. and the wires were separated for isometric pretension at 2 Nm^−1. The arterial segments were exposed two or three times with 60 mM K^+, by exchanging the buffer with a 60 mM K^+ buffer solution. To maintain equal osmolarity, a proportional amount of Na^+ had been removed from the buffer. An absolute cut-off was set at 2.0 mN K^+max for inclusion of arterial segments from rats that underwent the surgical procedure. Endothelium function was evaluated with the addition of 5-HT (3.10^−7 M) followed by carbachol (10^−5 M). For arteries from the OC the protocol was as followed: first a cumulative concentration-response curve to sarafotoxin 6C (S6c, 10^−14-10^−7 M), followed by a concentration-response curve to endothelin-1 (ET-1, 10^−14-10^−7 M). At peak ET-1 (10^−7 M), the buffer was changed to a Ca^2+-free buffer containing 10^−7 M ET-1 and nimodipine (L-type of voltage dependent Ca^2+ channel entry blocker, 10^−7 M). A concentration-response curve to Ca^2+ (0.0125-3 mM) was then performed. When vasodilation was investigated arteries was precontracted with U46619 (1.10^−7-3.10^−7 M) or K^+ (41 mM) and cumulative concentration-response curves was performed by adding calcitonin gene-related peptide (CGRP, 10^−12-10^−7 M), carbachol (10^−10-10^−5 M) or SNP (10^−11-10^−4 M).
(§3) Contractile responses of each segment were adjusted according to the length of the artery and are expressed as mN/mm (Nm^−1). […] To compare ET-1 sensitivity, arteries were normalized to the percentage of the individual vessel ET-1max. When the artery reached maximum contraction before the last concentration was added, the curves were constrained to the max contraction. The relative log IC50/log EC50 is the concentration corresponding to a response midway between the estimates of the lower and upper plateaus. The Emax is the maximal contraction in the concentration response curve and ET-1max is the maximal contraction to ET-1. All quantitative data is presented as mean±standard error of the mean (SEM), unless otherwise stated.

rat basilar arteries = experiment: 48 h organ culture of basilar artery, endothelium function / vasodilation (carbachol, SNP, CGRP); format: cell-based; details: 1 μM inhibitor; for endothelium function (10-5 M carbachol on arteries precontracted with 5-HT) vs DMSO: 48 h organ culture
Description: Rats were sedated with O2/CO2 (30/70%) and sacrificed by decapitation. […] The basilar artery (BA) was carefully dissected from the brain in a physiological buffer solution followed by either OC (naïve animals) or directly mounted in a wire myograph (arteries from rats which has undergone surgical procedures). Segments were incubated for 48 hours at 37° C. in humidified 5% CO2/O2 in DMEM supplemented with streptomycin and penicillin with inhibitors or vehicle (DMSO). Culture media was changed after 24 hours.
as §1
as §2, with “The” for “The segments were equilibrated in physiological buffer aerated with 95% O2/5% CO2, pH of 7.4, temperature set at 37° C. and the wires were separated for isometric pretension at 2 Nm^−1. The”, “A concentration-response curve to Ca^2+ (0.0125-3 mM) was then performed.” left out

[3] = test system: rat subarachnoid haemorrhage model; experiment: Rat SAH model, intrathecal treatment, myograph of basilar arteries; format: in vivo
Description: as §1
as §2, with “The” for “The segments were equilibrated in physiological buffer aerated with 95% O2/5% CO2, pH of 7.4, temperature set at 37° C. and the wires were separated for isometric pretension at 2 Nm^−1. The”, “A concentration-response curve to Ca^2+ (0.0125-3 mM) was then performed.” left out
If there was only one curve above the cut-off, the concentration-response curve to ET-1 was prioritized. Segments with the highest K^+ response were generally allocated to the concentration-response curve to ET-1. […] The Ca^2+ free buffer solution had similar composition as above, but 1.5 mM CaCl2 was exchanged with 0.03 mM EDTA.
as §3
Rats were anesthetized and prepared for cisternal infusion of autologous blood, which simulates a SAH. Sham-operated rats went through the same procedure, omitting the intracisternal blood injection of 300 μL. At the end of the procedure, a PinPort (PNP3F22, Instech, US) was placed at the end of the ICP catheter to provide access for intrathecal (i.t.) injectable treatments by a PinPort injector (PNP-3M, Instech, US). 24 hours post-surgery, the rats received s.c. injections of Carprofen (Norodyl, 5 mg/kg) (Scanvet, Denmark) for analgesia.
The intrathecal (i.t.) treatment volumes were estimated for a cerebrospinal fluid (CSF) volume of approximately 90 μL (21) and the total dose was administered as three treatments (4 hours, 10 hours and 24 hours) through the PinPort in the ICP catheter placed in the cisterna magna during the surgical procedure. The first and third injections were given under fixation of the rat. […] Animals were given 2.5 ml isotonic saline s.c. to avoid dehydration, immediately after surgery and in conjunction with the 10 hours and 24 hours treatments.

Solubility (statement) = format: physicochemical
[4] = test system: rat basilar arteries (contractile ETB receptors); details: cited from earlier work
[5] = test system: rat middle cerebral arteries (ETB receptor); details: former studies, same in vitro setup; cited from earlier work

| Compound | inhibition of S6c-induced contraction (initial screening groups) [2] | IC50 [2] [µM] | endothelium function (10-5 M carbachol on arteries precontracted with 5-HT) vs DMSO (rat basilar arteries) | further results |
| --- | --- | --- | --- | --- |
| NCCc1c[nH]c2ccc(C(N)=O)cc12 [5-CT, 5-carboxamidotryptamine] |  |  |  | agonist-mediated contraction (% of maximum potassium-mediated contraction) ([1]; intact females): 27±18%; agonist-mediated contraction (% of maximum potassium-mediated contraction) ([1]; ovariectomized females): 8±11% |
| Cn1cnc2c(F)c(Nc3ccc(Br)cc3F)c(C(=O)NOCCO)cc21 [Binimetinib] | Some effect | 6.76 |  |  |
| O=C(c1ccc(F)c(F)c1Nc1ccc(I)cc1F)N1CC(O)([C@@H]2CCCCN2)C1 [Cobimetinib] | Highly effective | 0.0562 |  |  |
| O=C(NOC[C@H](O)CO)c1ccc(F)c(F)c1Nc1ccc(I)cc1F [PD0325901] | Highly effective; also recorded: almost completely inhibited | 0.0195 | significant better endothelium function; also recorded: significant increase | Emax following NO donor sodium nitroprusside (SNP) (rat basilar arteries; 48 h OC): significant differences in the Emax; response to CGRP (rat basilar arteries; 48 h OC): No differences; vasodilation in response to carbachol (10^-10-10^-5 M) (rat basilar arteries; 48 h OC, precontracted with U46619 or K+): improved vasodilation; nimodipine insensitive ET-1max contraction ([3]; SAH + i.t. treatment, Ca2+ curve, 10^-7 M nimodipine): 1.0±0.3 Nm^−1; endothelium function ([3]; animals treated in vivo i.t. after SAH): No significant changes; estimated inhibitor effect in the ex vivo OC study ([2]; at predicted CSF concentration of approximately 10^-7 M): ~75% |
| CNS(=O)(=O)Nc1nccc(Cc2c(C)c3ccc(Oc4ncccn4)cc3oc2=O)c1F [RO5126766] | Some effect | 2.09 |  |  |
| COc1cc(F)c(F)c(Nc2ccc(I)cc2F)c1NS(=O)(=O)C1(C[C@H](O)CO)CC1 [Refametinib] | Borderline effective |  |  |  |
| Cn1c(=O)c(F)c(Nc2ccc(I)cc2F)c2c(=O)n(C[C@@H](O)CO)cnc21 [TAK-733] | Highly effective | 0.129 | significant better endothelium function; also recorded: significant increase |  |
| N#CC(=C(/N)Sc1ccccc1N)/C(C#N)=C(\N)Sc1ccccc1N [U0126] | Not effective; also recorded: no significant effect |  | poor endothelial response | solubility (Solubility (statement)): poor solubility; effect on ETB specific S6c-induced contractility ([4]; 10 μM, 48 hours OC, known from earlier work): inhibitory effect; established threshold for efficacy ([4]; used till date): 10 µM; concentration used for equivalent inhibition of ETB-receptor mediated contraction [5]: 10 µM |
| CC(=O)[C@H]1CC[C@H]2[C@@H]3CCC4=CC(=O)CC[C@]4(C)[C@H]3CC[C@]12C [progesterone] |  |  |  | maximum contractile responses of occluded and non-occluded arteries to S6c, Ang II or 5-CT vs placebo ([1]; ovariectomized rats treated 3 weeks, tMCAO): not affected |
| sarafotoxin 6c [S6c] |  |  |  | agonist-mediated contraction (% of maximum potassium-mediated contraction) ([1]; intact females): 22±16%; agonist-mediated contraction (% of maximum potassium-mediated contraction) ([1]; ovariectomized females): 8±9% |

From patent US20220273660A1, “MEK INHIBITOR FOR TREATMENT OF STROKE” (EDVINCE AB, priority 2019, published 2022)
